Measured values as given in patent US7696149B2, “Pharmaceutical administration form for peptides, process for its preparation, and use” (AEterna Zentaris GmbH, priority 2000, dated 2010).
Several values for one entry are separate records, joined by “and”; a condition that tells them apart may be missing. Identical values can stand only once. Entries after “also recorded” stand apart in the source; their conditions may differ. Each block holds one molecule with its values, some of them ahead of it. Non-standard residues stand in square brackets, D forms with d. Residues, ends and D or L forms follow the SMILES beside them. dPhe(4-Cl) = N[C@H](Cc1ccc(Cl)cc1)C(=O)O; d2Nal = N[C@H](Cc1ccc2ccccc2c1)C(=O)O; dCit = NC(=O)NCCC[C@@H](N)C(=O)O; d3Pal = N[C@H](Cc1cccnc1)C(=O)O

What was measured:
[1] = Rat muscle experiment: cetrorelix content in the plasma; type: in vivo
Description: (§1) In the further rat muscle experiments shown in Table 9, in addition to the residual content in the muscle, the cetrorelix content in the plasma was additionally determined.

[2] = Rat animal experiment: cetrorelix residual content in the muscle 168 h after injection; type: in vivo; settings: for Cetrorelix content in the muscle (168 h), % of the dose: rat
Description: (§2) After reconstitution of these lyophilizates, the solutions (2.5 mg/ml of cetrorelix) are investgated in the following tests for aggregate formation and release behaviour: • Polarization microscopy (pol. mic.): days without aggregation. • Filterability in %: • Cetrorelix solutions are prepared according to a standardized procedure and filtered through 0.22 μm or 0.45 μm filters by means of centrifugation. The concentration of cetrorelix in the filtrate is determined by HPLC and indicated as a % value, based on the starting concentration before filtration (filterability in %). • in-vitro release form (RRS, release in Ringer's solution): • % released after 1 h and after 6 h. • The in-vitro release behaviour is determined at 37° C. in a flow procedure using Ringer's solution as medium. The concentration measurement is carried out by HPLC. Cetrorelix samples, corresponding to 10 mg of cetrorelix base, are weighed into the flow cell, mixed with 4 ml of water and stirred for 10 min.
as §1

[3] = Optical appearance of cetrorelix acetate solutions with excipients; type: physicochemical
[4] = In-vitro release in Ringer's solution (RRS), flow procedure at 37° C.; type: physicochemical
Description: as §2, with “([…])” for “(2.5 mg/ml of cetrorelix)”

[5] = Polarization microscopy: aggregation of cetrorelix solutions (days without aggregation); type: physicochemical
Description: By means of polarization microscopy, aggregation investigations were carried out on solutions of various cetrorelix salts without or with addition of excipients.
In the polarization light microscope with crossed polarizers, aggregated peptide solutions show images which are very similar to those of liquid-crystalline structures. In contrast to this, aggregate-free peptide solutions produce no such effects.
as §2, with “([…])” for “(2.5 mg/ml of cetrorelix)”

[6] = dose 1.5 mg/kg, inj. soln 3 mg/ml
[7] = Cremophor ® EL 5.00%, cetrorelix 2.5 mg/ml
[8] = Cremophor ® EL 10.00%, cetrorelix 2.5 mg/ml
[9] = Cremophor ® EL 20.00%, cetrorelix 2.5 mg/ml
[10] = Cremophor ® EL 20.00%, cetrorelix 5 mg/ml
[11] = Galacturonic acid 2.50%, cetrorelix 2.5 mg/ml, pH 2.6
[12] = Glucaric acid 2.50%, cetrorelix 2.5 mg/ml, pH 2.5
[13] = L-glutamic acid 0.80%, cetrorelix 2.5 mg/ml, pH 3.8
[14] = Solutol ® HS 15 5.00%, cetrorelix 2.5 mg/ml
[15] = Solutol ® HS 15 10.00%, cetrorelix 2.5 mg/ml
[16] = Solutol ® HS 15 20.00%, cetrorelix 2.5 mg/ml
[17] = conc. of cetrorelix from lyo 2.5 mg/ml
[18] = conc. of cetrorelix from lyo 5 mg/ml
[19] = cetrorelix 2.5 mg/ml, Kollidon 0%
[20] = cetrorelix 2.5 mg/ml, Kollidon 5%
[21] = cetrorelix 2.5 mg/ml, Kollidon 10%
[22] = cetrorelix 2.5 mg/ml, Kollidon 15%
[23] = cetrorelix 2.5 mg/ml, Kollidon 20%
[24] = cetrorelix 5 mg/ml, Kollidon 15%
[25] = cetrorelix 5 mg/ml, Kollidon 20%
[26] = dose 1.5 mg/kg, inj. soln 3 mg/ml, listed as Acetate
[27] = dose 3.0 mg/kg, inj. soln 15 mg/ml
[28] = conc. of cetrorelix from lyo 15 mg/ml

Molecule: CC(=O)N[C@H](Cc1ccc2ccccc2c1)C(=O)N[C@H](Cc1ccc(Cl)cc1)C(=O)N[C@H](Cc1cccnc1)C(=O)N[C@@H](CO)C(=O)N[C@@H](Cc1ccc(O)cc1)C(=O)N[C@H](CCCNC(N)=O)C(=O)N[C@@H](CC(C)C)C(=O)N[C@@H](CCCNC(=N)N)C(=O)N1CCC[C@H]1C(=O)N[C@H](C)C(N)=O [Base, cetrorelix] (Ac-[d2Nal][dPhe(4-Cl)][d3Pal]SY[dCit]LRP[dA]-NH2)
Cetrorelix content in the plasma, % of the dose [1, 6]: 122.2 % of the dose
Cetrorelix content in the muscle (168 h), % of the dose [2, 6]: 27.2 % of the dose

Molecule: CC(=O)N[C@H](Cc1ccc2ccccc2c1)C(=O)N[C@H](Cc1ccc(Cl)cc1)C(=O)N[C@H](Cc1cccnc1)C(=O)N[C@@H](CO)C(=O)N[C@@H](Cc1ccc(O)cc1)C(=O)N[C@H](CCCNC(N)=O)C(=O)N[C@@H](CC(C)C)C(=O)N[C@@H](CCCNC(=N)N)C(=O)N1CCC[C@H]1C(=O)N[C@H](C)C(N)=O [cetrorelix acetate] (Ac-[d2Nal][dPhe(4-Cl)][d3Pal]SY[dCit]LRP[dA]-NH2)
Appearance [3, 7]: clear
Appearance [3, 8]: clear
Appearance [3, 9]: clear
Appearance [3, 10]: clear,; also recorded: viscose
Appearance [3, 11]: clear
Appearance [3, 12]: clear
Appearance [3, 13]: clear
Appearance [3, 14]: clear
Appearance [3, 15]: clear
Appearance [3, 16]: clear
RRS, [%] after 1 h [4, 17]: 12% and 13%
RRS, [%] after 6 h [4, 17]: 24.5% and 35.9%
RRS, [%] after 1 h [4, 18]: 10%
RRS, [%] after 6 h [4, 18]: 35%
Days without aggregation ([5]; 2.5 mg/ml cetrorelix acetate, gluconic acid in reconstitution medium 0%, pH 4.7): 1 days
Days without aggregation ([5]; 2.5 mg/ml cetrorelix acetate, gluconic acid in reconstitution medium 0.0071%, pH 4.5): 2 days
Days without aggregation ([5]; 2.5 mg/ml cetrorelix acetate, gluconic acid in reconstitution medium 0.071%, pH 3.7): 2 days
Days without aggregation ([5]; 2.5 mg/ml cetrorelix acetate, gluconic acid in reconstitution medium 0.71%, pH 3.1): 12 days
Aggregation (microscopy): yes, after ... days [5, 7]: 10 days
Aggregation (microscopy): days without aggregation [5, 8]: ≧112 days
Aggregation (microscopy): days without aggregation [5, 9]: ≧112 days
Aggregation (microscopy): yes, after ... day [5, 10]: yes, after 1 day
Aggregation (microscopy): days without aggregation [5, 11]: ≧12 days
Aggregation (microscopy): days without aggregation [5, 12]: ≧12 days
Aggregation (microscopy): yes, after ... days [5, 13]: yes, after 2 days
Aggregation (microscopy): yes, after ... days [5, 14]: 14 days
Aggregation (microscopy): days without aggregation [5, 15]: ≧112 days
Aggregation (microscopy): days without aggregation [5, 16]: ≧112 days
Days without aggregation ([5]; acetate salt, cetrorelix 2.5 mg/ml, glucuronic acid addition: no, pH 4.7): 0 days
Days without aggregation ([5]; acetate salt, cetrorelix 2.5 mg/ml, glucuronic acid addition: yes, pH 3.0): >21 days
Days without aggregation ([5]; acetate salt, cetrorelix 5 mg/ml, glucuronic acid addition: yes, pH 3.0): 0 days
Days without aggregation with Kollidon ® 12 PF [5, 19]: 0 days
Days without aggregation with Kollidon ® 17 PF [5, 19]: 0 days
Days without aggregation with Kollidon ® 12 PF [5, 20]: 1 days
Days without aggregation with Kollidon ® 17 PF [5, 20]: 2 days
Days without aggregation with Kollidon ® 12 PF [5, 21]: 1 days
Days without aggregation with Kollidon ® 17 PF [5, 21]: 2 days
Days without aggregation with Kollidon ® 12 PF [5, 22]: 77 days
Days without aggregation with Kollidon ® 17 PF [5, 22]: 63 days
Days without aggregation with Kollidon ® 12 PF [5, 23]: 84 days
Days without aggregation with Kollidon ® 17 PF [5, 23]: 98 days
Days without aggregation with Kollidon ® 12 PF [5, 24]: 0 days
Days without aggregation with Kollidon ® 17 PF [5, 24]: 1 days
Days without aggregation with Kollidon ® 12 PF [5, 25]: 0 days
Days without aggregation with Kollidon ® 17 PF [5, 25]: 1 days
Aggregation-free duration ([5]; cetrorelix acetate 2.5 mg/ml, 10% of α-cyclodextrin): 7 days
Aggregation-free duration ([5]; cetrorelix acetate 2.5 mg/ml, 20% of hydroxypropyl-β-cyclodextrin): 24 days
Aggregation-free duration ([5]; cetrorelix acetate 5 mg/ml, 10% of α-cyclodextrin): 0 days
Aggregation-free duration ([5]; cetrorelix acetate 5 mg/ml, 20% of hydroxypropyl-β-cyclodextrin): 7 days
Aggregation-free duration ([5]; cetrorelix acetate 7.5 mg/ml, 10% of α-cyclodextrin): 0 days
Aggregation-free duration ([5]; cetrorelix acetate 7.5 mg/ml, 20% of hydroxypropyl-β-cyclodextrin): 10 days
Aggregation-free duration ([5]; cetrorelix acetate 10 mg/ml, 10% of α-cyclodextrin): 0 days
Aggregation-free duration ([5]; cetrorelix acetate 10 mg/ml, 20% of hydroxypropyl-β-cyclodextrin): 2 days
Aggregation-free duration ([5]; cetrorelix acetate 15 mg/ml, 20% of hydroxypropyl-β-cyclodextrin): 0 days
Aggregation-free duration ([5]; cetrorelix acetate 15 mg/ml, 20% of γ-cyclodextrin): 0 days
Pol. mic days without aggr. [5, 17]: 0 days
Pol. mic days without aggr. [5, 18]: 0 days
Cetrorelix content in the plasma, % of the dose [1, 26]: 92.2 % of the dose
Cetrorelix content in the plasma, % of the dose [1, 27]: 28.7 % of the dose
Cetrorelix content in the muscle (168 h), % of the dose [2, 26]: 55.1 % of the dose
Cetrorelix content in the muscle (168 h), % of the dose [2, 27]: 56.5 % of the dose
Rat % i.m. after 168 h ([2]; residual content in the muscle, % of dose, conc. of cetrorelix 2.5 mg/ml): ~55%

Molecule: Citrate
RRS, [%] after 1 h [4, 28]: 9%
RRS, [%] after 6 h [4, 28]: 20.3%

Now from value to molecule:

RRS, [%] after 1 h ([4]; bulk): 20%
RRS, [%] after 6 h ([4]; bulk): 55.2%
Molecule: Lactate

Cetrorelix content in the plasma, % of the dose ([1]; in vivo, 1.5 mg/kg): 22.6 % of the dose
Cetrorelix content in the muscle (168 h), % of the dose ([2]; in vivo, 1.5 mg/kg): 32.9 % of the dose
Molecule: Phosphate

RRS, [%] after 1 h [4, 17]: 18% and 11.3%
RRS, [%] after 6 h [4, 17]: 45.3% and 46%
Days without aggregation ([5]; 2.5 mg/ml cetrorelix gluconate, hydroxypropyl-β-cyclodextrin 20%): 189 days
Days without aggregation ([5]; 2.5 mg/ml cetrorelix gluconate, hydroxypropyl-β-cyclodextrin […]): 91 days
Days without aggregation ([5]; 2.5 mg/ml cetrorelix gluconate, α-cyclodextrin 5%): 1 days
Days without aggregation ([5]; 2.5 mg/ml cetrorelix gluconate, α-cyclodextrin 10%): 140 days
Days without aggregation ([5]; 2.5 mg/ml cetrorelix gluconate, γ-cyclodextrin 20%): 182 days
Days without aggregation ([5]; 2.5 mg/ml cetrorelix gluconate, γ-cyclodextrin […]): 126 days
Days without aggregation ([5]; cetrorelix 2.5 mg/ml, gluconic acid addition: yes, pH 3.0): >30 days
Days without aggregation ([5]; cetrorelix 5 mg/ml, gluconic acid addition: no, pH 4.7): 1 days
Days without aggregation ([5]; cetrorelix 5 mg/ml, gluconic acid addition: no, pH 4.8): 1 days
Days without aggregation ([5]; cetrorelix 5 mg/ml, gluconic acid addition: yes, pH 3.6): 4 days
Days without aggregation ([5]; cetrorelix 5 mg/ml, gluconic acid addition: yes, pH 3.8): 4 days
Days without aggregation ([5]; cetrorelix 7.5 mg/ml, gluconic acid addition: no, pH 4.7): 0 days
Days without aggregation ([5]; cetrorelix 7.5 mg/ml, gluconic acid addition: no, pH 4.8): 0 days
Days without aggregation ([5]; cetrorelix 7.5 mg/ml, gluconic acid addition: yes, pH 3.4): 1 days
Days without aggregation ([5]; cetrorelix 7.5 mg/ml, gluconic acid addition: yes, pH 3.7): 1 days
Cetrorelix content in the plasma, % of the dose ([1]; in vivo, 1.5 mg/kg): 46.9 % of the dose
Cetrorelix content in the muscle (168 h), % of the dose ([2]; in vivo, 1.5 mg/kg): 37.9 % of the dose
Molecule: cetrorelix gluconate

Days without aggregation ([5]; glucuronate salt, cetrorelix 2.5 mg/ml, glucuronic acid addition: no, pH 4.5): 3 days
Days without aggregation ([5]; glucuronate salt, cetrorelix 2.5 mg/ml, glucuronic acid addition: yes, pH 2.9): >30 days
Days without aggregation ([5]; glucuronate salt, cetrorelix 5 mg/ml, glucuronic acid addition: no, pH 4.6): 0 days
Days without aggregation ([5]; glucuronate salt, cetrorelix 5 mg/ml, glucuronic acid addition: yes, pH 2.7): >30 days
Cetrorelix content in the plasma, % of the dose ([1]; in vivo, 1.5 mg/kg): 78.6 % of the dose
Cetrorelix content in the muscle (168 h), % of the dose ([2]; in vivo, 1.5 mg/kg): 16.5 % of the dose
Cetrorelix content in the muscle (168 h), % of the dose ([2]; in vivo, 3 mg/kg): 18.8 % of the dose
Molecule: cetrorelix glucuronate
